Here are results for three substances from US20090325314A1, “N-Methyl Scanning Mutagenesis” (UNIVERSITY OF SOUTHERN CALIFORNIA, priority 2008, published 2009).

Where no end group is shown, it is not given here. [ ]: non-standard residue; d: D form. NMeK = CN[C@@H](CCCCN)C(=O)O

Assay [1] deals with T1, Gαi1·GDP (Homo sapiens, UniProt P63096). Conditions: binding to Gαi1·GDP; literature value; cited from earlier work.
The target in assay [2] is T1, Gαi1·GDP. In words: TnT pulldown binding of N-methyl peptide library. The arrangement: made in house; host or cells: cell-free TnT coupled transcription/translation system (Promega); cDNA clone from UMR cDNA Resource Center. Conditions: compared with unmodified peptide. The method, then:
Binding affinity of N-methyl peptide library: TnT pulldown experiments were carried out as described in [10] with some modifications. Human cDNA clones encoding G proteins with the pcDNA3.1+ vector (Invitrogen) were obtained from the UMR cDNA Resource Center (www.cdna.org). The DNA clones for Gαi1, and HRas were translated into 35S-Met labeled proteins using a TnT coupled transcription/translation system (Promega). Translation reactions were desalted using G-25 spin columns (GE Healthcare) and the translation yield was calculated by TCA precipitation. Equal amounts of each labeled subunit were added to (5 μL) neutravidin-agarose containing (2 nmol) pre-bound biotin labeled peptide in (1 mL) HBS-EP buffer. Control neutravidin-agarose beads were loaded with (d)-biotin (Anaspec). Binding reactions proceeded for 2 hrs at 4° C. followed by filtration and washing with HBS-EP. The matrix was analyzed by scintillation counting and the percent bound was determined by the matrix counts divided by the total counts as determined by TCA precipitation. Values were normalized to the percent bound of unmodified peptide.

Another assay addresses T2, Gαi1 (Homo sapiens, UniProt P63096).
T2 construct: made in house; host or cells: cell-free TnT reticulocyte lysate system (Promega), T7 promoter
In words: R6A-1 competition/equilibrium binding. Conditions: relative to unmodified peptide. The method, then: FIG. 2. Relative Peptide Affinities. (A) Radiolabeled Gαi1 was incubated with immobilized, biotinylated R6A and varying concentrations of either R6A (▾), unmodified peptide (▴), or N-Me-K (♦) for 3 hr. at 4° C. The radiolabel bound was normalized to that which bound in the absence of competitor. The plotted values represent the mean of three experimental values and the error bars correspond to the standard deviation. (B) Experimentally determined binding data is shown above. The error is calculated based on the standard error of the mean (SEM) for the log IC50 using GraphPad 5.0.
R6A-1 Competition/Equilibrium Binding: R6A (MSQTKRLDDQLYWWEYL) and Bio-R6A (Bio-MSQTKRLDDQLYWWEYL) were synthesized by previously described methods. This peptide was immobilized to NeutrAvidin beads (Promega) using the manufacturer's instructions. Gαi1 was expressed using the TnT reticulocyte lysate system (T7 promoter, Promega). (250 ng) plasmid DNA and (25 μCi) L-35S-Met (MP Biomedicals) were used in an (25 μL) expression. […] Specific Activity was measured by TCA precipitation.
400 pmol immobilized R6A, and (100,000 cpm) Gαi1 were suspended in (1 mL) HBS-EP buffer. Varying quantities of free peptide (R6A, Unmodified peptide, or N-Me-K) were added. […] After the final wash, the immobilized sample was transferred to scintillation vials and analyzed by scintillation counting. […]

T1 sequence (P63096 whole entry): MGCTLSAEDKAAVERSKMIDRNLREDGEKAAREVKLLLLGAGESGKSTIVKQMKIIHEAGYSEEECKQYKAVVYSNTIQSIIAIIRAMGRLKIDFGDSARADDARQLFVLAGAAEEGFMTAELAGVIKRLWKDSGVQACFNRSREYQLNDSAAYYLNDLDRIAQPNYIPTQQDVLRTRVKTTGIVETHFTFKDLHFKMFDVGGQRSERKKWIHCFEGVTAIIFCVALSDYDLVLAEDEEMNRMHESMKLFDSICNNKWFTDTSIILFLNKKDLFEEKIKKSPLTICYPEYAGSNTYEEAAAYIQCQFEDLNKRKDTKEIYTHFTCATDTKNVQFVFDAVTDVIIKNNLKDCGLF
T2 sequence (P63096 whole entry): as above

What is called Kd is the equilibrium constant for the complex coming apart. For the substance DKLYWWEFL, the Kd at Gαi1·GDP [1] is 200 nM.

On to MSQTKRLDDQLYWWEYL [Compound R6A], for which the Kd at Gαi1·GDP [1] is 60 nM. NNNNND[NMeK]LYWWEFL [N-Me-K]: the “peptide binding affinity to Gαi1·GDP (qualitative)” value on Gαi1·GDP [2] is listed as “increased binding affinity”. This substance returned a ΔΔG on Gαi1 (equilibrium competition with R6A) of -0.50 kcal/mol. Besides, the “enhanced binding (fold) by equilibrium competition using the R6A peptide” value at Gαi1 (immobilized R6A, radiolabeled Gαi1, 3 hr at 4° C.) was 2.5 fold.
